Laboratory results taken from patent US11969400B2, “Ibuprofen for symptomatic treatment of diarrheas in HIV patients” (priority 2021, dated 2024).

System: noninfectious diarrhea in HIV positive subjects
Assay: Randomized double-blinded study of Acetaminophen vs Ibuprofen suspension in HIV positive subjects with noninfectious diarrhea
Format: in vivo, human
Details: for average number of stools twenty-four hours later: after 24 hours of treatment, clear liquid diet, range in brackets, two-tailed p <0.0001 between groups, 95% CI 1.44-2.6; for average number of stools on the first visit (day 1): baseline at first visit (day 1), 42 enrollees per group
Protocol: HIV positive subjects who present with noninfectious diarrhea are enrolled in a study. All enrollees are randomly divided into two groups A (Acetaminophen) and B (Ibuprofen) and treated for 24 hours. They receive a double-blinded suspension of either Acetaminophen or Ibuprofen during the study period. The enrollees are instructed to consume only a clear liquid diet during the study period. After 24 hours, the number of loose stools since last visit and status of hydration are reassessed. In addition, enrollees are examined and assessed for any possible side effects of the medications. A total of 84 patients are enrolled into the study. Both drug categories has 42 (50%) enrollees. Two patients are lost to follow up in each group. The average number of stools on the first visit (day 1) in group A (Acetaminophen) is 5.12 and the average number of stools in group B (ibuprofen) is 5.25. Twenty-four hours later, the average number of stools, in group A is 3.45 (1-5) and the average number of stool in group B, is 1.9 (0-4). The two-tailed p-value was <0.0001 with a confidence interval at 95% (1.44-2.6).

Structure (SMILES) | average number of stools twenty-four hours later | average number of stools on the first visit (day 1)
CC(C)Cc1ccc(C(C)C(=O)O)cc1 (stereo not shown) [ibuprofen] | 1.9 (0-4) | 5.25
CC(=O)Nc1ccc(O)cc1 [Acetaminophen] | 3.45 (1-5) | 5.12
